Entries after “also recorded” stand apart in the source; their conditions may differ. Where two headings read alike, the source gives them in different places.
Assays:
[1] = molecular target: T1, 12-LO (Homo sapiens, UniProt P18054); experiment: 12-HETE formation in platelets; details: 20 µM AA, 2.5 µM A23187, n = 3–6
T1 sequence (P18054 1-663): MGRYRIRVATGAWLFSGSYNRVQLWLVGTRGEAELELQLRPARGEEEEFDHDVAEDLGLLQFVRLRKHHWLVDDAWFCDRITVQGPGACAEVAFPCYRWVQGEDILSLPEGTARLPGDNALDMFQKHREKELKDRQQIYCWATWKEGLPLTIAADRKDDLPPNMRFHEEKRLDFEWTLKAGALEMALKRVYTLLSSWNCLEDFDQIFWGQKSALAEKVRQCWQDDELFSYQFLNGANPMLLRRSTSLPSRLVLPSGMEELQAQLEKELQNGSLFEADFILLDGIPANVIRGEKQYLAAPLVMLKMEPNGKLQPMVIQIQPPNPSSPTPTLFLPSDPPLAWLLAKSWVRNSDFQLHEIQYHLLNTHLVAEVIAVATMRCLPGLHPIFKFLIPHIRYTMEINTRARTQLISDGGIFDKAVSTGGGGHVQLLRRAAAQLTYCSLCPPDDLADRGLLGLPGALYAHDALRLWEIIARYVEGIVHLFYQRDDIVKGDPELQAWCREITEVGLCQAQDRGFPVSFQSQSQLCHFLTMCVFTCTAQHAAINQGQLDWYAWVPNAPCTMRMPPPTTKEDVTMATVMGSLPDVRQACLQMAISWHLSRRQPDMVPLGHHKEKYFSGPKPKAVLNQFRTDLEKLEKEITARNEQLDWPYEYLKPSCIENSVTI

[2] = system: 15-LO; experiment: 15-HETE formation in intact PMNL; details: for IC50: read-out: IC50 for inhibition of 15-HETE formation, PMNL
[3] = molecular target: T2, 5-LO (Homo sapiens, UniProt P09917); experiment: 5-LO product formation in intact PMNL
T2 sequence (P09917 1-674): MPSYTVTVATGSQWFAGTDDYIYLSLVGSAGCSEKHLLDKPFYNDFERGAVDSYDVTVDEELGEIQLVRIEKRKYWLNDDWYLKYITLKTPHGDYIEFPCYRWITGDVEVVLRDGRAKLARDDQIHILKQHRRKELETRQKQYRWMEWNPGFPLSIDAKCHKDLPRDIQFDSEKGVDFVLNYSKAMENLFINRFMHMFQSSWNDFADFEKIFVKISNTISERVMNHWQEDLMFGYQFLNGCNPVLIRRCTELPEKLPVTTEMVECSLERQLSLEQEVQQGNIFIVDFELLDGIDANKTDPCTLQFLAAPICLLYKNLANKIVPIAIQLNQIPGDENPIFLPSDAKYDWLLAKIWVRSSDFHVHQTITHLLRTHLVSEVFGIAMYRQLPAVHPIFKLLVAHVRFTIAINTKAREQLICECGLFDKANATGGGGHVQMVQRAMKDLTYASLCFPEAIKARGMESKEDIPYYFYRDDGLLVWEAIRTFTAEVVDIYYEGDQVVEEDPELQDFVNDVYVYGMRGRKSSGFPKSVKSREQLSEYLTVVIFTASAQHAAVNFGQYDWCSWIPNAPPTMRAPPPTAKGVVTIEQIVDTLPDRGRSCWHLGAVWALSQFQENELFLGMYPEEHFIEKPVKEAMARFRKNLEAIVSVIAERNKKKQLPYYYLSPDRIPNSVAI

[4] = molecular target: T3, r5-LO_WT (Homo sapiens, UniProt P09917); experiment: Covalent inhibitor binding by mass spectrometry, r5-LO_WT; details: 20 µM protein, 100 µM compound, at least 1 h RT
T3 construct: made in house; host or cells: E. coli BL21 (DE3)
T3 sequence (P09917 1-674): T2 sequence (P09917 1-674)

[5] = system: U2OS cells; details: human, 10 µM
[6] = system: U2OS cells; experiment: Multiplex live-cell high-content assay; details: up to 48 h, normalized to DMSO
[7] = intact PMNL, 20 µM AA, 2.5 µM A23187, (95% CI), n = 3–6
[8] = IC50 for inhibition of 5-LO product formation, PMNL, intact PMNL, 20 µM AA, 2.5 µM A23187, (95% CI), n = 3–6

Molecule	IC50 for inhibition of 12-HETE formation, platelets [1]	IC50 for inhibition of 15-HETE formation, PMNL [2, 7]	IC50 [3]	other results
N#C/C(=C\c1ccc(O)c(O)c1)C(N)=O [(E)-AG99]	no inhibition	no inhibition	7.2 µM	
CC(C)(C)c1cc(C=C(C#N)C#N)cc(Br)c1O [AG1024]		no inhibition	3.1 µM	
O=C(/C=C/c1ccc(O)c(O)c1)OCCc1ccccc1 [CAPE, caffeic acid phenethyl ester]	no inhibition		0.23 µM	inhibitor adducts to r5-LO_WT detected by mass spectrometry [4]: did not detect mass shifts; normalized healthy cell count [5]: around 75%; IC50 [2, 7]: 10 µM
CC(C)c1cc(/C=C(\C#N)C(=O)NCCCc2ccccc2)cc(C(C)C)c1O [SU1498]		did not show inhibition; also recorded: no inhibition	0.76 µM	
CN[C@@H]1C[C@H]2O[C@@](C)([C@@H]1OC)n1c3ccccc3c3c4c(c5c6ccccc6n2c5c31)C(=O)NC4 [Staurosporine]				normalized healthy cell count ([6]; 10 µM inhibitor): about 25%
N#CC(C#N)=Cc1ccc(O)cc1 [Tyrphostin 8]		no inhibition		IC50 for inhibition of 5-LO product formation, PMNL [3, 7]: no inhibition; IC50 for inhibition of 5-LO product formation, PMNL ([3]; intact PMNL, 20 µM AA, 2.5 µM A23187, (95% CI), n = 3–6, listed as tyrphostin 8): failed to inhibit
CC(C)(C)c1cc(C=C(C#N)C#N)cc(C(C)(C)C)c1O [Tyrphostin A9]	no inhibition	no inhibition	1.1 µM	inhibitor adducts to r5-LO_WT detected by mass spectrometry [4]: did not detect mass shifts; normalized healthy cell count ([6]; 1 µM inhibitor): 57%; normalized healthy cell count ([6]; 1 µM inhibitor, listed as tyrphostin A9): about 50%; normalized healthy cell count ([6]; 10 µM inhibitor): below 50%
AG825				IC50 for inhibition of 15-HETE formation, PMNL [2]: no inhibition

More lines, main results first:

IC50 for inhibition of 12-HETE formation, platelets [1]	IC50 for inhibition of 15-HETE formation, PMNL [2, 7]	IC50 [3]	Molecule	other results
no inhibition	no inhibition	5.4 µM	N#CC(C#N)=Cc1ccc(O)c(O)c1 [AG18]	
	no inhibition		N#C/C(=C\c1ccc(O)c(O)c1)C(=O)O [AG30]	IC50 for inhibition of 5-LO product formation, PMNL [3, 7]: no inhibition
no inhibition	no inhibition	8 µM	N#CC(C#N)=Cc1cc(O)c(O)c(O)c1 [AG82]	
	no inhibition		N#CC(C#N)=Cc1ccc([N+](=O)[O-])c(O)c1 [AG126]	IC50 for inhibition of 5-LO product formation, PMNL [3, 7]: no inhibition
no inhibition			N#C/C(=C\c1ccc(O)c(O)c1)C(=O)NCc1ccccc1 [AG490]	IC50 [2, 7]: > 25 µM; IC50 [3, 8]: 1.1 µM
no inhibition		0.86 µM	N#C/C(=C\c1ccc(O)c(O)c1)C(=O)Nc1ccccc1 [AG494]	IC50 [2, 7]: 22 µM
	no inhibition	> 30 µM	COc1ccc(/C=C(/C#N)c2cccnc2)cc1OC [RG13022]	
	no inhibition	5.9 µM	N#C/C(=C/c1cc(Cl)cc(Cl)c1)c1cccnc1 [RG14620]	
	moderate inhibition		C[C@H](NC(=O)/C(C#N)=C/c1cccc(Br)n1)c1ccccc1 [WP1066]	IC50 [2, 7]: 18 µM; IC50 [3, 8]: 0.93 µM
